Publication PMC10996005, “Identification and Development of Cyclic Peptide Inhibitors of Hypoxia Inducible Factors 1 and 2 That Disrupt Hypoxia-Response Signaling in Cancer Cells” (Journal of the American Chemical Society, 2024)
Where a SMILES comes first, the peptide text is derived from it. [ ]: non-standard residue; d: D form. Phe(4-I) = N[C@@H](Cc1ccc(I)cc1)C(=O)O

System: VEGF gene in 786-O cells
Assay: qPCR of HIF-2-driven VEGF in 786-O cells
Type: cell-based
Settings: 50 μM
Procedure: The effect of our lead inhibitor on hypoxia-response signaling was measured by qPCR in cancer cell lines. Cells were treated with either 2 μM of an analogue of the HIF-2-specific inhibitor belzutifan, PT2399 (control), or 50 μM of cyclo-CRLII(4-iodo)F, incubated in hypoxia for […], and the levels of the hypoxia-response genes CAIX([41],[42]) and VEGF([43]) were measured by qPCR. We observed a 51% drop in CAIX transcription and a 43% drop in VEGF transcription in hypoxic MCF-7 (breast cancer) cells treated with 50 μM of cyclo-CRLII(4-iodo)F versus hypoxic MCF-7 cells treated with DMSO only (Figure 6e). […] We also observed a 49% drop in CAIX expression in hypoxic HeLa (cervical cancer) cells treated with cyclo-CRLII(4-iodo)F (Figure S9b). […] We observed a 35% drop in HIF-2-driven VEGF transcription in 786-O cells treated with 50 μM of cyclo-CRLII(4-iodo)F compared to a 50% decrease in 786-O cells treated with PT2399. […]
Realtime PCR (qPCR) Assay
Cells were plated on 6cm dishes at 80% confluency and incubated overnight under normoxic conditions. The cells were then treated with compound and incubated for 18 hours in hypoxic conditions. After treatment, the cells were washed with PBS and lysed under hypoxic conditions. The total RNA was extracted from the cells using a commercial RNA extraction kit (Fisher Scientific) following the manufacturer's instructions. […]

CC[C@H](C)[C@@H]1NC(=O)[C@H](CC(C)C)NC(=O)[C@H](CCCNC(=N)N)NC(=O)[C@H](CS)NC(=O)[C@H](Cc2ccc(I)cc2)NC(=O)[C@H]([C@@H](C)CC)NC1=O [cyclo-CRLII(4-iodo)F] (cyclo(CRLII[Phe(4-I)]))
drop in HIF-2-driven VEGF transcription: 35%
